Results taken from ChEMBL document CHEMBL1177782, “Synthesis and biological evaluation of oxazole derivatives as T-type calcium channel blockers” (Bioorg Med Chem Lett, 2010).

How the values were obtained:
[1] = target: T1, Voltage-dependent T-type calcium channel subunit alpha-1G (Homo sapiens, UniProt O43497); assay: Inhibition of T-type CaV3.1 channel expressed in HEK293 cells assessed as inhibition of calcium current at 10 uM by fluorescence based HTS FDSS6000 assay; type: cell-based
[2] = target: T1, Voltage-dependent T-type calcium channel subunit alpha-1G; assay: Inhibition of T-type CaV3.1 channel expressed in HEK293 cells assessed as inhibition of calcium current by automated patch-clamp assay; type: cell-based

T1 sequence (O43497 whole entry): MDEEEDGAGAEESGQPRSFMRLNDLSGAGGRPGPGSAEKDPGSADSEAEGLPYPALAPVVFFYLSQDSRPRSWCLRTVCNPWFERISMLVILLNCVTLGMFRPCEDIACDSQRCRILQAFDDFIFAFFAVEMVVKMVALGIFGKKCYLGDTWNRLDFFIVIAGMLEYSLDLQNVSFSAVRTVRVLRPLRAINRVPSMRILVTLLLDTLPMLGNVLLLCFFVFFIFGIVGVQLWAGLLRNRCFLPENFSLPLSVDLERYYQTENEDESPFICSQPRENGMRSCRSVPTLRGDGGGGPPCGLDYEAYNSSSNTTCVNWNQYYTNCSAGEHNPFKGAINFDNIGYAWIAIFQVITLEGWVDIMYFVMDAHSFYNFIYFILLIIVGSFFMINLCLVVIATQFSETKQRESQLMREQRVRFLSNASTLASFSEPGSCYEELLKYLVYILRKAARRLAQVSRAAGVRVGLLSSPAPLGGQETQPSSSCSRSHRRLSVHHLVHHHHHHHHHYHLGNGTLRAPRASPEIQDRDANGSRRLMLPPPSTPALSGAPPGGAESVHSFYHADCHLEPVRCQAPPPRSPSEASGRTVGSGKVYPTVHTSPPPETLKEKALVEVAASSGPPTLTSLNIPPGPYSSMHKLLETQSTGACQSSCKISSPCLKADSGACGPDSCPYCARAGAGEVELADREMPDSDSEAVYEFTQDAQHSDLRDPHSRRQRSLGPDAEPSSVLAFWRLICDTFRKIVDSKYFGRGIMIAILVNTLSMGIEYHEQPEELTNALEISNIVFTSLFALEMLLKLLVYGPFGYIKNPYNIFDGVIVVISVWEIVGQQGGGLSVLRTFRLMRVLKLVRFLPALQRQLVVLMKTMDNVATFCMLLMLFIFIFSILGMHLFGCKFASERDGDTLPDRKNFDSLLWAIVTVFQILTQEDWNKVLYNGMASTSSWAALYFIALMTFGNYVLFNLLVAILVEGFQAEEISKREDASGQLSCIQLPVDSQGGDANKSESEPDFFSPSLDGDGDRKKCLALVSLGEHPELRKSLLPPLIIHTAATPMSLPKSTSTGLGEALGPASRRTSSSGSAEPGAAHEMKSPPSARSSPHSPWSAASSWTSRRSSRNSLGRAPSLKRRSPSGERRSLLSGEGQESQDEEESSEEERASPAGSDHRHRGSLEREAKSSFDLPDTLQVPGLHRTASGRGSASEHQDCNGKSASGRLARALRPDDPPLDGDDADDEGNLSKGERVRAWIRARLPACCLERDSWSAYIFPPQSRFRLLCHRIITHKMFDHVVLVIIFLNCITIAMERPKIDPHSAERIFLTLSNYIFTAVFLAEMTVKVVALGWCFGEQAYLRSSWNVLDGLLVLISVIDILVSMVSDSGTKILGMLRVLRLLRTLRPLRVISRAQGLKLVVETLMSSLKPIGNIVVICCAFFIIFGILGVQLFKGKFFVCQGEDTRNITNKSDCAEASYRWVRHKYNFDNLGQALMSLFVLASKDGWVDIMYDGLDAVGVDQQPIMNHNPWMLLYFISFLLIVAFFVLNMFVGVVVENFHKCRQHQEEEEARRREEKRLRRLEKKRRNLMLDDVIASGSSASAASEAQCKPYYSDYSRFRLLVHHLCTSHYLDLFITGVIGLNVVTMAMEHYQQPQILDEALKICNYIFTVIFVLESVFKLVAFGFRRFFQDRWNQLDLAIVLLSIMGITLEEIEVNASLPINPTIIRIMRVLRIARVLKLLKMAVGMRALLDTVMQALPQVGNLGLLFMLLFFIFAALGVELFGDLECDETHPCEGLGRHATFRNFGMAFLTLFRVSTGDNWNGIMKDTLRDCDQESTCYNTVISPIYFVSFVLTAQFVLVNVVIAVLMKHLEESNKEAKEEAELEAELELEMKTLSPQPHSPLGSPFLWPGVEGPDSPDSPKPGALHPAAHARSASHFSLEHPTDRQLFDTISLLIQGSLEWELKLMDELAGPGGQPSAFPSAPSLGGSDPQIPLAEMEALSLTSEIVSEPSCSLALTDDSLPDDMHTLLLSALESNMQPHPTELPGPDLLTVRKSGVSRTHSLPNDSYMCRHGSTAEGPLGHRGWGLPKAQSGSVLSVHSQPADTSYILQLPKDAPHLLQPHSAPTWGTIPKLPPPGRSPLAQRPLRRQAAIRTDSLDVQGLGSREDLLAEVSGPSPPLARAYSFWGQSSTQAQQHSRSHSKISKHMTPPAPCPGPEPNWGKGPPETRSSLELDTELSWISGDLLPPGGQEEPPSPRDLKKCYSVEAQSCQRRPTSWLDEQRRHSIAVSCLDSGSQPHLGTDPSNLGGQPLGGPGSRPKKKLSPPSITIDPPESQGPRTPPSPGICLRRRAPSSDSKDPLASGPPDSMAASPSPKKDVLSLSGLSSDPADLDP

Compound: CCCc1nc(-c2ccccc2)c(CNCCCN2CCN(c3ccccc3C(F)(F)F)CC2)o1
- inhibition [1]: 45%

Compound: CCCc1nc(-c2ccccc2)c(CNCCN2CCN(c3ccc(C)cc3C)CC2)o1
- inhibition [1]: 64.3%
- IC50 [2]: 2220 nM

Compound: CCCc1nc(-c2ccccc2)c(CNCCCN2CCN(c3cccc(OC)c3)CC2)o1
- inhibition [1]: 36.4%

Compound: CCCc1nc(-c2ccccc2)c(CNCCCN2CCN(c3ccc(C(F)(F)F)cc3)CC2)o1
- inhibition [1]: 51.6%
- IC50 [2]: 7250 nM

Compound: CCCc1nc(-c2ccccc2)c(CNCCN2CCN(c3ccc(C)cc3)CC2)o1
- inhibition [1]: 48.1%

Compound: CCCc1nc(-c2ccccc2)c(CNCCN2CCN(c3ccccc3C)CC2)o1
- inhibition [1]: 51.3%
- IC50 [2]: 4300 nM

Compound: CCCc1nc(-c2ccccc2)c(CNCCN2CCN(c3cccc(F)c3)CC2)o1
- inhibition [1]: 62.3%
- IC50 [2]: 3350 nM

Compound: CCCc1nc(-c2ccccc2)c(CNCCN2CCN(c3cccc(C)c3C)CC2)o1
- inhibition [1]: 66.7%
- IC50 [2]: 1710 nM

Compound: CCCc1nc(-c2ccccc2)c(CNCCN2CCN(c3ccc(Cl)cc3)CC2)o1
- inhibition [1]: 55.8%
- IC50 [2]: 2820 nM

Compound: CCCc1nc(-c2ccccc2)c(CNCCN2CCN(c3ccccc3)CC2)o1
- inhibition [1]: 54.3%
- IC50 [2]: 10200 nM

Compound: CCCc1nc(-c2ccccc2)c(CNCCN2CCN(c3ccccc3F)CC2)o1
- inhibition [1]: 46.5%

Compound: CCCc1nc(-c2ccccc2)c(CNCCN2CCN(c3ccc(F)cc3)CC2)o1
- inhibition [1]: 54.1%
- IC50 [2]: 7080 nM

Compound: CCCc1nc(-c2ccccc2)c(CNCCN2CCN(c3ccccc3OC)CC2)o1
- inhibition [1]: 39.7%

Compound: CCCc1nc(-c2ccccc2)c(CNCCCN2CCN(c3ccc(Cl)cc3)CC2)o1
- inhibition [1]: 63.2%
- IC50 [2]: 1310 nM

Compound: CCCc1nc(-c2ccccc2)c(CNCCN2CCN(c3cccc(OC)c3)CC2)o1
- inhibition [1]: 40.2%

Compound: CCCc1nc(-c2ccccc2)c(CNCCN2CCN(c3ccccc3Cl)CC2)o1
- inhibition [1]: 60.1%
- IC50 [2]: 4370 nM

Compound: CCCc1nc(-c2ccccc2)c(CNCCCN2CCN(c3ccccc3F)CC2)o1
- inhibition [1]: 54.4%
- IC50 [2]: 16100 nM

Compound: CCCc1nc(-c2ccccc2)c(CNCCCN2CCN(c3ccccc3C)CC2)o1
- inhibition [1]: 54.5%
- IC50 [2]: 8750 nM

Compound: CCCc1nc(-c2ccccc2)c(CNCCN2CCN(c3ccc(C(F)(F)F)cc3)CC2)o1
- inhibition [1]: 58.7%
- IC50 [2]: 1300 nM

Compound: CCCc1nc(-c2ccccc2)c(CNCCN2CCN(c3cccc(Cl)c3)CC2)o1
- inhibition [1]: 51.2%
- IC50 [2]: 1450 nM

Compound: CCCc1nc(-c2ccccc2)c(CNCCCN2CCN(c3cccc(C)c3C)CC2)o1
- inhibition [1]: 55.2%
- IC50 [2]: 1780 nM

Compound: Cc1nc(-c2ccccc2)c(CNCCN2CCN(C(c3ccccc3)c3ccccc3)CC2)o1
- inhibition [1]: 57.3%

Compound: CCCc1nc(-c2ccccc2)c(CNCCCN2CCN(c3ccccc3)CC2)o1
- inhibition [1]: 43.7%

Compound: CCCc1nc(-c2ccccc2)c(CNCCCN2CCN(c3ccc(F)cc3)CC2)o1
- inhibition [1]: 62.5%
- IC50 [2]: 3210 nM

Compound: CCCc1nc(-c2ccccc2)c(CNCCCN2CCN(c3cccc(F)c3)CC2)o1
- inhibition [1]: 68.9%
- IC50 [2]: 3030 nM

Compound: CCCc1nc(-c2ccccc2)c(CNCCCN2CCN(c3cccc(Cl)c3)CC2)o1
- inhibition [1]: 65.9%
- IC50 [2]: 1750 nM

Compound: CCCc1nc(-c2ccccc2)c(CNCCN2CCN(c3ccccc3C(F)(F)F)CC2)o1
- inhibition [1]: 54.6%
- IC50 [2]: 2100 nM

Compound: CCCc1nc(-c2ccccc2)c(CNCCCN2CCN(c3ccc(OC)cc3)CC2)o1
- inhibition [1]: 42.1%

Compound: CCCc1nc(-c2ccccc2)c(CNCCCN2CCN(c3ccccc3Cl)CC2)o1
- inhibition [1]: 64.7%
- IC50 [2]: 2800 nM

Compound: CCCc1nc(-c2ccccc2)c(CNCCCN2CCN(c3ccccc3OC)CC2)o1
- inhibition [1]: 41%

Compound: CCCc1nc(-c2ccccc2)c(CNCCCN2CCN(c3ccc(C)cc3)CC2)o1
- inhibition [1]: 53.9%
- IC50 [2]: 130000 nM

Compound: CCCc1nc(-c2ccccc2)c(CNCCCN2CCN(c3cccc(C)c3)CC2)o1
- inhibition [1]: 47.8%
- IC50 [2]: 1190 nM

Compound: CCCc1nc(-c2ccccc2)c(CNCCN2CCN(c3cccc(C(F)(F)F)c3)CC2)o1
- inhibition [1]: 56.3%
- IC50 [2]: 1940 nM

Compound: CCCc1nc(-c2ccccc2)c(CNCCCN2CCN(c3cccc(C(F)(F)F)c3)CC2)o1
- inhibition [1]: 51.6%
- IC50 [2]: 650 nM

Compound: Cc1nc(-c2ccccc2)c(CNCCCN2CCN(c3ccc(Cl)cc3)CC2)o1
- inhibition [1]: 38.1%

Compound: CCCc1nc(-c2ccccc2)c(CNCCCN2CCN(c3ccc(C)c(C)c3)CC2)o1
- inhibition [1]: 54.6%
- IC50 [2]: 3020 nM

Compound: CCCc1nc(-c2ccccc2)c(CNCCN2CCN(C(c3ccccc3)c3ccccc3)CC2)o1
- inhibition [1]: 71.8%
- IC50 [2]: 7470 nM

Compound: CCCc1nc(-c2ccccc2)c(CNCCN2CCN(c3ccccn3)CC2)o1
- inhibition [1]: 48.1%

Compound: CCCc1nc(-c2ccccc2)c(CNCCN2CCN(c3cccc(C)c3)CC2)o1
- inhibition [1]: 43.1%

Compound: CCCc1nc(-c2ccccc2)c(CNCCN2CCN(c3ccc(OC)cc3)CC2)o1
- inhibition [1]: 51.5%
- IC50 [2]: 9200 nM

Compound: CCCc1nc(-c2ccccc2)c(CNCCN2CCN(c3ccc(C)c(C)c3)CC2)o1
- inhibition [1]: 67.9%
- IC50 [2]: 2220 nM
